The source of these data is US5439816A, “Carboxymethylcellulase isolated from bacillus sp. PKM-5430 (FERM BP-4087)” (Kao Corporation, priority 1991, dated 1995).

Read-outs that look alike come from different tables or passages of the source.

In data set [1] the test system is Carboxymethylcellulase 5430. In words: Effects of metal ions on carboxymethylcellulase activity of Carboxymethylcellulase 5430. It counts as biochemical, Bacillus sp. PKM-5430. Particulars: for Relative activity (%): 20 minutes at 40° C., pH 9.0, none = 100. The procedure: (§1) Activities were determined by the DNS method (J. R. Summer and G. F. Somers, Laboratory Experiments in Biological Chemistry, Academic Press, New York, U.S.A., 1944). Namely, 0.1 ml of a suitably diluted enzyme solution was added to 0.9 ml of a 1.1% (w/v) solution of a CMC (A01MC) substrate in 0.1M glycine-NaOH buffer (pH: 9.0). After a 20-minute reaction at 40° C., 1 ml of 0.05% (w/v) 3,5-dinitrosalicylic acid solution (product of Wako Pure Chemical Industries, Ltd.) was added, and the resulting mixture was immediately placed in a boiling water bath for 5 minutes, followed by cooling in an iced water bath. Then, 4 ml of deionized water was added further, afterwhich, colorimetry was conducted by measuring an absorbance at 535 nm. With respect to enzymatic activity, the amount of enzyme, which liberates reducing sugars corresponding to 1 μmole of glucose for 1 minute, was defined as 1 unit.
Among the various metal ions tested, Hg^2+, at 1 mM, inhibited the activity of the enzyme by about 75%. On the contrary, Co^+2, at 1 mM stimulated the activity of the enzyme by about 30% and Mn^+2, at 1 mM, also stimulated the activity by about 50%.

Data set [2] deals with Carboxymethylcellulase 5812. In words: Effects of metal ions on carboxymethylcellulase activity of Carboxymethylcellulase 5812. Particulars: for Relative activity (%): 20 minutes at 40° C., pH 9.0, none = 100. Type of data set: biochemical, Bacillus sp. PKM-5812. The procedure:
as §1
Among the various metal ions tested, Hg^2+, at 1 mM, inhibited the activity of the enzyme by about 75%. On the contrary, Co^+2, at 1 mM stimulated the activity of the enzyme by about 50%, and Mn^+2, at 1 mM, also stimulated the activity by 53%.

The test system of data set [3] is Carboxymethylcellulase 5430. In words: Effects of chelating agents, thiol reagents, additives and proteinases on Carboxymethylcellulase 5430. Type of data set: biochemical, Bacillus sp. PKM-5430. As to conditions: for Relative activity (%): none = 100; for stimulated the activity of the enzyme by: added at 1 mM. The procedure:
as §1
On the other hand, 2-mercaptoethanol and dithiothreitol, each added at 1 mM, stimulated the activity of the enzyme by 39% and 50%, respectively. It was not observed that the proteinases such as alkalase, maxatase, savinase and Protease API-21 inactivated the enzyme of this invention under this reaction conditions.

Data set [4] relates to Carboxymethylcellulase 5812. In words: Effects of chelating agents, thiol reagents, additives and proteinases on Carboxymethylcellulase 5812. Particulars: for Relative activity (%): none = 100; for stimulated the activity of the enzyme by: added at 1 mM. It counts as biochemical, Bacillus sp. PKM-5812. The procedure: as §1
On the other hand, 2-mercaptoethanol and dithiothreitol, each added at 1 mM, stimulated the activity of the enzyme by 52% and 84%, respectively. It was not observed that the proteinases such as alkalase, maxatase, savinase and Protease API-21 inactivated the enzyme of this invention under this reaction conditions.

The subject of data set [5] is Carboxymethylcellulase 5430. Type of data set: biochemical, Bacillus sp. PKM-5430. The procedure:
as §1
(§2) However, the activity of the enzyme was not inhibited by the other inhibitors.
(§3) *: The enzyme was pretreated at pH 5.5 (50 mM acetate buffer).

The test system of data set [6] is Carboxymethylcellulase 5812. Type of data set: biochemical, Bacillus sp. PKM-5812. The procedure: as §1, §2, §3
For data set [7], the system named is Carboxymethylcellulase 5430. In words: Effects of surfactants on carboxymethylcellulase activity of Carboxymethylcellulase 5430. Type of data set: biochemical, Bacillus sp. PKM-5430. Particulars: for Relative activity (%): surfactant 0.05%, 20 minutes at 40° C., pH 9.0, none = 100. The procedure:
as §1
In particular, SDS and the fatty acid salt stimulated the activity of the enzyme by 26% and 45%, respectively.

Data set [8] has as its system Carboxymethylcellulase 5812. In words: Effects of surfactants on carboxymethylcellulase activity of Carboxymethylcellulase 5812. Type of data set: biochemical, Bacillus sp. PKM-5812. Particulars: for Relative activity (%): surfactant 0.05%, 20 minutes at 40° C., pH 9.0, none = 100. The procedure: as §1
In particular, SDS and the fatty acid salt stimulated the activity of the enzyme by 21% and 23%, respectively.

[9] abbreviates: metal ion 1 mM, listed as Fe^3+.
Where [10] appears, read: reagent 1 mM, 20 minutes at 40° C., pH 9.0.
[11] abbreviates: inhibitor 0.1 mM, enzyme pretreated at pH 5.5 (50 mM acetate buffer), none = 100.
[12] abbreviates: inhibitor 1.0 mM, 20 minutes at 40° C., pH 9.0, none = 100.
[13] abbreviates: reagent 0.01%, 20 minutes at 40° C., pH 9.0.

Consider `[Fe+2]` [Fe^2+], for which the “Relative activity (%)” value in data set [1] (metal ion 1 mM) was determined as 105%; in data set [1] (setting [9]), 110%; in data set [2] (metal ion 1 mM) it was 101%; in data set [2] (setting [9]), 104%.

Consider `c1cnc2c(c1)ccc1cccnc12` [o-Phenanthroline], for which the results for the “Relative activity (%)” value in data set [3] (setting [10]) and in data set [4] (setting [10]) were 98% and 100%, respectively.

Consider `OCCS` [2-Mercaptoethanol], for which the “stimulated the activity of the enzyme by” value in data set [3] is 39%; in data set [4], 52%. The “Relative activity (%)” value in data set [3] (setting [10]) turned out to be 139%; in data set [4] (setting [10]) it was 152%.

Consider `[Zn+2]` [Zn^2+], for which the “Relative activity (%)” value in data set [1] (metal ion 1 mM) came to 92%; in data set [2] (metal ion 1 mM), 96%.

With `[Al+3]` [Al^3+], the “Relative activity (%)” value was 101% in data set [1] (metal ion 1 mM) and 97% in data set [2] (metal ion 1 mM).

Take `[Mg+2]` [Mg^2+]: the “Relative activity (%)” value was determined as 108% in data set [1] (metal ion 1 mM) and 109% in data set [2] (metal ion 1 mM).

For `O=C1CCC(=O)N1Br` [N-Bromosuccinimide], the “inhibited the activity of this enzyme by” value in data set [5] and in data set [6] was 97% each time. Moreover, the “Relative activity (%)” value in data set [5] (setting [11]) turned out to be 4%; in data set [6] (setting [11]), 3%.

With `CCCCCCCCCCCCOS(=O)(=O)[O-].[Na+]` [SDS, sodium dodecyl sulfate], in data set [7], the “effect of surfactants on enzyme activity” value is recorded as “either scarcely inhibited or stimulated”, the “stimulated the activity of the enzyme by” value was 26% and the “Relative activity (%)” value amounted to 126%. Further, in data set [8], the “effect of surfactants on enzyme activity” value is reported as “either scarcely inhibited or stimulated”, the “stimulated the activity of the enzyme by” value is 21% and the “Relative activity (%)” value worked out at 121%.

With sodium α-olefin sulfonate [AOS], in data set [7], the “effect of surfactants on enzyme activity” value was “either scarcely inhibited or stimulated” and the “Relative activity (%)” value turned out to be 107%. Further, in data set [8], the “effect of surfactants on enzyme activity” value is on record as “either scarcely inhibited or stimulated” and the “Relative activity (%)” value came to 105%.

In the case of `[K+]` [K^+], the “Relative activity (%)” value in data set [1] (metal ion 50 mM) was 116%; in data set [2] (metal ion 50 mM) it was 126%.

With `[Hg+2]` [Hg^2+], the “inhibited the activity of the enzyme by” value in data set [1] (at 1 mM) and in data set [2] (at 1 mM) was “about 75%” in each case. Also, the “Relative activity (%)” value is listed as 25% in data set [1] (metal ion 1 mM) and 27% in data set [2] (metal ion 1 mM).

For the molecule `[Ca+2]` [Ca^2+], the “Relative activity (%)” value in data set [1] (metal ion 1 mM) and in data set [2] (metal ion 1 mM) was 108% each time.

As for `O[C@H](CS)[C@H](O)CS` (racemic) [Dithiothreitol], the “stimulated the activity of the enzyme by” value in data set [3] stood at 50%; in data set [4], 84%. In addition, the “Relative activity (%)” value in data set [3] (setting [10]) worked out at 150%; in data set [4] (setting [10]), 184%.

With `[Cu+2]` [Cu^2+], the results for the “Relative activity (%)” value in data set [1] (metal ion 1 mM) and in data set [2] (metal ion 1 mM) were 97% and 98%, respectively.

On to `Cl.NO` [Hydroxylamine hydrochloride], for which the “Relative activity (%)” value in data set [5] (setting [12]) stood at 133%; in data set [6] (setting [12]) it was 123%.

Regarding `O=S(=O)(F)Cc1ccccc1` [Phenylmethanesulfonyl fluoride, phenylmethanesulfonyl fluoride], the “inhibited the activity of this enzyme by” value in data set [5] turned out to be 24%. Moreover, the “Relative activity (%)” value was 76% in data set [5] (setting [12]) and 107% in data set [6] (setting [12]).

In the case of `O=C(O)CN(CCOCCOCCN(CC(=O)O)CC(=O)O)CC(=O)O` [EGTA], the “effect of chelating agents on enzyme activity” value in data set [3] and in data set [4] was “somewhat inhibited” throughout. Moreover, the “Relative activity (%)” value is 66% in data set [3] (setting [10]) and 73% in data set [4] (setting [10]).

As to “sodium linear alkylbenzenesulfonate [LAS]”, in data set [7], the “effect of surfactants on enzyme activity” value is “either scarcely inhibited or stimulated” and the “Relative activity (%)” value was 105%. Further, in data set [8], the “effect of surfactants on enzyme activity” value is given as “either scarcely inhibited or stimulated” and the “Relative activity (%)” value came to 96%.

As for `[N-]=[N+]=[N-]` [Sodium azide], the “Relative activity (%)” value came out at 118% in data set [5] (setting [12]) and 117% in data set [6] (setting [12]).

Turning to `[Pb+2]` [Pb^2+], the results for the “Relative activity (%)” value in data set [1] (metal ion 1 mM) and in data set [2] (metal ion 1 mM) were 81% and 93%, respectively.

`[Co+2]` [Co^2+]: the figures for the “stimulated the activity of the enzyme by” value in data set [1] (at 1 mM) and in data set [2] (at 1 mM) were “about 30%” and “about 50%”, respectively. The “Relative activity (%)” value in data set [1] (metal ion 1 mM) was found to be 149%; in data set [2] (metal ion 1 mM), 150%.

For “sodium α-sulfonated fatty acid ester [α-SFE]”, in data set [7], the “effect of surfactants on enzyme activity” value is reported as “either scarcely inhibited or stimulated” and the “Relative activity (%)” value was 116%. In data set [8], the “effect of surfactants on enzyme activity” value is “either scarcely inhibited or stimulated” and the “Relative activity (%)” value worked out at 97%.

As to `O=C(O)CN(CCN(CC(=O)O)CC(=O)O)CC(=O)O` [EDTA], the “effect of chelating agents on enzyme activity” value in data set [3] and in data set [4] was “somewhat inhibited” throughout. Moreover, the “Relative activity (%)” value in data set [3] (setting [10]) is 71%; in data set [4] (setting [10]), 79%.

As for `[Mn+2]` [Mn^2+], the “stimulated the activity of the enzyme by” value in data set [1] (at 1 mM) was “about 50%”; in data set [2] (at 1 mM), 53%. Moreover, the “Relative activity (%)” value in data set [1] (metal ion 1 mM) came to 130%; in data set [2] (metal ion 1 mM) it was 153%.

For the molecule `[Na+]` [Na^+], the “Relative activity (%)” value was determined as 121% in data set [1] (metal ion 50 mM) and 120% in data set [2] (metal ion 50 mM).

Consider sodium alkyl sulfate [AS], for which, in data set [7], the “effect of surfactants on enzyme activity” value is “either scarcely inhibited or stimulated” and the “Relative activity (%)” value is on record as 123%. Further, in data set [8], the “effect of surfactants on enzyme activity” value is listed as “either scarcely inhibited or stimulated” and the “Relative activity (%)” value is reported as 112%.

For `O=C(O)CI` [Monoiodo acetic acid], the entries for the “Relative activity (%)” value in data set [5] (pH 9) and in data set [6] (pH 9) were 117% and 104%, respectively.

On to “sodium polyoxyethylene alkyl sulfate [ES]”, for which, in data set [7], the “effect of surfactants on enzyme activity” value is reported as “either scarcely inhibited or stimulated” and the “Relative activity (%)” value is on record as 102%. For the same molecule, in data set [8], the “effect of surfactants on enzyme activity” value is on record as “either scarcely inhibited or stimulated” and the “Relative activity (%)” value is reported as 112%.

On to `O=C(O)c1cc[c]([Hg][Cl])cc1` [4-Chloromercuribenzoic acid], for which the “Relative activity (%)” value worked out at 118% in data set [5] (setting [12]) and 105% in data set [6] (setting [12]).

B1: Alkalase: proteinase (protein, UniProt P00780 106-379, looked up)
Subtilisin Carlsberg: AQTVPYGIPLIKADKVQAQGFKGANVKVAVLDTGIQASHPDLNVVGGASFVAGEAYNTDGNGHGTHVAGTVAALDNTTGVLGVAPSVSLYAVKVLNSSGSGSYSGIVSGIEWATTNGMDVINMSLGGASGSTAMKQAVDNAYAKGVVVVAAAGNSGSSGNTNTIGYPAKYDSVIAVGAVDSNSNRASFSSVGAELEVMAPGAGVYSTYPTNTYATLNGTSMASPHVAGAAALILSKHPNLSASQVRNRLSSTATYLGSSFYYGKGLINVEAAAQ
As for B1, the “inactivation of the enzyme by proteinases” value in data set [3] (20 minutes at 40° C., pH 9.0) was “not observed”; in data set [4] (20 minutes at 40° C., pH 9.0) it was “not observed”. Also, the “Relative activity (%)” value came out at 111% in data set [3] (setting [13]) and 107% in data set [4] (setting [13]).
